Results as given in US8952024B2, “Herbicidal pyrimidone derivatives” (E I du Pont de Nemours and Company, priority 2009, dated 2015).

Columns and labels:
Type in all cases: in vivo
[1] = test system: barnyardgrass (Echinochloa crus-galli); assay: Test A pre-/postemergence plant response
How it was run: (§1)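 Approximately ten days after concurrent pre- and postemergence spraying in a greenhouse, plants were compared with untreated controls and rated visually for injury, 0 = no effect to 100 = complete control. Preemergence spray was directed onto loam/sand soil; postemergence targeted 1–2 leaf seedlings.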

corn (Zea mays) = assay: Test A pre-/postemergence plant response
How it was run: as §1

[2] = test system: giant foxtail (Setaria faberii); assay: Test A pre-/postemergence plant response
How it was run: as §1

[3] = test system: large crabgrass (Digitaria sanguinalis); assay: Test A pre-/postemergence plant response
How it was run: as §1

[4] = test system: morningglory (Ipomoea spp.); assay: Test A pre-/postemergence plant response
How it was run: as §1

[5] = test system: pigweed (Amaranthus retroflexus); assay: Test A pre-/postemergence plant response
How it was run: as §1

[6] = test system: velvetleaf (Abutilon theophrasti); assay: Test A pre-/postemergence plant response
How it was run: as §1

[7] = test system: wheat (Triticum aestivum); assay: Test A pre-/postemergence plant response
How it was run: as §1

[8] = test system: canarygrass (Phalaris minor); assay: Test B postemergence plant response; conditions: Postemergence; for Canarygrass plant response rating: 250 g ai/ha, scale 0 to 100
How it was run: (§2)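 Plants at the 1- to 4-leaf stage (2 to 18 cm tall), grown in pots of peat moss/vermiculite medium with wetting agent and starter nutrients, received postemergence applications of test chemicals. After 13 to 15 days in a greenhouse, injury was rated visually against untreated controls on a 0 (no effect) to 100 (complete control) scale.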

[9] = test system: chickweed (Stellaria media); assay: Test B postemergence plant response; conditions: Postemergence; for Chickweed plant response rating: 250 g ai/ha, scale 0 to 100
How it was run: as §2

[10] = test system: windgrass (Apera spica-venti); assay: Test B postemergence plant response; conditions: Postemergence, scale 0 (no effect) to 100 (complete control)
How it was run: as §2

[11] = test system: winter barley (Hordeum vulgare); assay: Test B postemergence plant response; conditions: Postemergence; for Barley plant response rating: 250 g ai/ha, scale 0 to 100
How it was run: as §2

[12] = Postemergence, 125 g ai/ha, visual injury, 0 to 100 scale (0 no effect, 100 complete control), approx. ten days
[13] = Postemergence, 500 g ai/ha, 0 to 100 scale, 0 = no effect, 100 = complete control, approx. ten days
[14] = Preemergence, 125 g ai/ha, 0 to 100 scale, 0 = no effect, 100 = complete control
[15] = Preemergence, 500 g ai/ha, visual injury, 0 to 100 scale (0 no effect, 100 complete control), approx. ten days
[16] = 31 g ai/ha, scale 0 to 100 (0 no effect, 100 complete control)
[17] = 62 g ai/ha, scale 0 (no effect) to 100 (complete control), 13 to 15 days
[18] = 125 g ai/ha, visual rating after 13 to 15 days, scale 0 (no effect) to 100 (complete control)
[19] = 125 g ai/ha, visual rating after 13 to 15 days

SMILES: Cc1ccccc1-n1c(-c2cccc(Cl)c2)ncc(C(=O)C2=C(O)CCCC2=O)c1=O [Compound 36]
- Barnyardgrass plant response rating [1, 12]: 90
- Plant response rating, Barnyardgrass [1, 13]: 100
- Plant response rating, Barnyardgrass [1, 14]: 10
- Plant response rating, Barnyardgrass [1, 15]: 50
- Corn plant response rating (corn (Zea mays); [12]): 0
- Plant response rating, Corn (corn (Zea mays); [13]): 60
- Plant response rating, Corn (corn (Zea mays); [14]): 0
- Plant response rating, Corn (corn (Zea mays); [15]): 0
- Foxtail, Giant plant response rating [2, 12]: 80
- Plant response rating, Foxtail, Giant [2, 13]: 100
- Plant response rating, Foxtail, Giant [2, 14]: 10
- Plant response rating, Foxtail, Giant [2, 15]: 60
- Crabgrass, Large plant response rating [3, 12]: 80
- Plant response rating, Crabgrass, Large [3, 13]: 100
- Plant response rating, Crabgrass, Large [3, 14]: 10
- Plant response rating, Crabgrass, Large [3, 15]: 80
- Morningglory plant response rating [4, 12]: 50
- Plant response rating, Morningglory [4, 13]: 100
- Plant response rating, Morningglory [4, 14]: 0
- Plant response rating, Morningglory [4, 15]: 30
- Pigweed plant response rating [5, 12]: 90
- Plant response rating, Pigweed [5, 13]: 100
- Plant response rating, Pigweed [5, 14]: 0
- Plant response rating, Pigweed [5, 15]: 80
- Velvetleaf plant response rating [6, 12]: 100
- Plant response rating, Velvetleaf [6, 13]: 100
- Plant response rating, Velvetleaf [6, 14]: 60
- Plant response rating, Velvetleaf [6, 15]: 100
- Wheat plant response rating [7, 12]: 0
- Plant response rating, Wheat [7, 13]: 0
- Plant response rating, Wheat [7, 14]: 0
- Plant response rating, Wheat [7, 15]: 20
- Plant response rating, Canarygrass [8, 16]: 40
- Plant response rating, Canarygrass [8, 17]: 45
- Plant response rating, Canarygrass [8, 18]: 50
- Canarygrass plant response rating [8]: 50
- Plant response rating, Chickweed [9, 16]: 85
- Plant response rating, Chickweed [9, 17]: 98
- Plant response rating, Chickweed [9, 18]: 100
- Chickweed plant response rating [9]: 100
- Plant response rating, Windgrass ([10]; 62 g ai/ha, 13 to 15 days): 70
- Plant response rating, Windgrass [10, 19]: 80
- Plant response rating, Barley [11, 16]: 5
- Plant response rating, Barley [11, 17]: 10
- Plant response rating, Barley [11, 18]: 20

SMILES: O=C1CCCC(O)=C1C(=O)c1cnc(-c2ccccc2)n(-c2cccc(Br)c2)c1=O [Compound 38]
- Barnyardgrass plant response rating [1, 12]: 60
- Plant response rating, Barnyardgrass [1, 13]: 90
- Plant response rating, Barnyardgrass [1, 14]: 10
- Plant response rating, Barnyardgrass [1, 15]: 90
- Corn plant response rating (corn (Zea mays); [12]): 0
- Plant response rating, Corn (corn (Zea mays); [13]): 60
- Plant response rating, Corn (corn (Zea mays); [14]): 0
- Plant response rating, Corn (corn (Zea mays); [15]): 30
- Foxtail, Giant plant response rating [2, 12]: 50
- Plant response rating, Foxtail, Giant [2, 13]: 90
- Plant response rating, Foxtail, Giant [2, 14]: 10
- Plant response rating, Foxtail, Giant [2, 15]: 80
- Crabgrass, Large plant response rating [3, 12]: 60
- Plant response rating, Crabgrass, Large [3, 13]: 100
- Plant response rating, Crabgrass, Large [3, 14]: 30
- Plant response rating, Crabgrass, Large [3, 15]: 100
- Morningglory plant response rating [4, 12]: 100
- Plant response rating, Morningglory [4, 13]: 100
- Plant response rating, Morningglory [4, 14]: 0
- Plant response rating, Morningglory [4, 15]: 70
- Pigweed plant response rating [5, 12]: 100
- Plant response rating, Pigweed [5, 13]: 100
- Plant response rating, Pigweed [5, 14]: 50
- Plant response rating, Pigweed [5, 15]: 100
- Velvetleaf plant response rating [6, 12]: 100
- Plant response rating, Velvetleaf [6, 13]: 100
- Plant response rating, Velvetleaf [6, 14]: 70
- Plant response rating, Velvetleaf [6, 15]: 100
- Wheat plant response rating [7, 12]: 0
- Plant response rating, Wheat [7, 13]: 40
- Plant response rating, Wheat [7, 14]: 0
- Plant response rating, Wheat [7, 15]: 20
- Plant response rating, Canarygrass [8, 16]: 10
- Plant response rating, Canarygrass [8, 17]: 10
- Plant response rating, Canarygrass [8, 18]: 10
- Canarygrass plant response rating [8]: 45
- Plant response rating, Chickweed [9, 16]: 85
- Plant response rating, Chickweed [9, 17]: 90
- Plant response rating, Chickweed [9, 18]: 100
- Chickweed plant response rating [9]: 100
- Plant response rating, Windgrass ([10]; 62 g ai/ha, 13 to 15 days): 80
- Plant response rating, Windgrass [10, 19]: 85
- Plant response rating, Barley [11, 16]: 0
- Plant response rating, Barley [11, 17]: 0
- Plant response rating, Barley [11, 18]: 0
- Barley plant response rating [11]: 35

SMILES: Cc1c(Cl)cccc1-n1c(-c2ccccc2)ncc(C(=O)C2=C(O)CCCC2=O)c1=O [Compound 40]
- Barnyardgrass plant response rating [1, 12]: 90
- Plant response rating, Barnyardgrass [1, 13]: 90
- Plant response rating, Barnyardgrass [1, 14]: 10
- Plant response rating, Barnyardgrass [1, 15]: 100
- Corn plant response rating (corn (Zea mays); [12]): 0
- Plant response rating, Corn (corn (Zea mays); [13]): 50
- Plant response rating, Corn (corn (Zea mays); [14]): 0
- Plant response rating, Corn (corn (Zea mays); [15]): 0
- Foxtail, Giant plant response rating [2, 12]: 90
- Plant response rating, Foxtail, Giant [2, 13]: 100
- Plant response rating, Foxtail, Giant [2, 14]: 50
- Plant response rating, Foxtail, Giant [2, 15]: 90
- Crabgrass, Large plant response rating [3, 12]: 90
- Plant response rating, Crabgrass, Large [3, 13]: 100
- Plant response rating, Crabgrass, Large [3, 14]: 60
- Plant response rating, Crabgrass, Large [3, 15]: 100
- Morningglory plant response rating [4, 12]: 50
- Plant response rating, Morningglory [4, 13]: 100
- Plant response rating, Morningglory [4, 14]: 10
- Plant response rating, Morningglory [4, 15]: 80
- Pigweed plant response rating [5, 12]: 100
- Plant response rating, Pigweed [5, 13]: 100
- Plant response rating, Pigweed [5, 14]: 70
- Plant response rating, Pigweed [5, 15]: 90
- Velvetleaf plant response rating [6, 12]: 100
- Plant response rating, Velvetleaf [6, 13]: 100
- Plant response rating, Velvetleaf [6, 14]: 70
- Plant response rating, Velvetleaf [6, 15]: 100
- Wheat plant response rating [7, 12]: 0
- Plant response rating, Wheat [7, 13]: 0
- Plant response rating, Wheat [7, 14]: 0
- Plant response rating, Wheat [7, 15]: 0
- Plant response rating, Canarygrass [8, 16]: 20
- Plant response rating, Canarygrass [8, 17]: 20
- Plant response rating, Canarygrass [8, 18]: 30
- Canarygrass plant response rating [8]: 35
- Plant response rating, Chickweed [9, 16]: 100
- Plant response rating, Chickweed [9, 17]: 100
- Plant response rating, Chickweed [9, 18]: 100
- Chickweed plant response rating [9]: 100
- Plant response rating, Windgrass ([10]; 62 g ai/ha, 13 to 15 days): 70
- Plant response rating, Windgrass [10, 19]: 80
- Plant response rating, Barley [11, 16]: 0
- Plant response rating, Barley [11, 17]: 0
- Plant response rating, Barley [11, 18]: 10
- Barley plant response rating [11]: 10

SMILES: CCCCc1ncc(C(=O)C2=C(O)CCCC2=O)c(=O)n1-c1ccccc1 [Compound 42]
- Barnyardgrass plant response rating [1, 12]: 60
- Plant response rating, Barnyardgrass [1, 13]: 90
- Plant response rating, Barnyardgrass [1, 14]: 0
- Plant response rating, Barnyardgrass [1, 15]: 60
- Corn plant response rating (corn (Zea mays); [12]): 0
- Plant response rating, Corn (corn (Zea mays); [13]): 30
- Plant response rating, Corn (corn (Zea mays); [14]): 0
- Plant response rating, Corn (corn (Zea mays); [15]): 0
- Foxtail, Giant plant response rating [2, 12]: 40
- Plant response rating, Foxtail, Giant [2, 13]: 70
- Plant response rating, Foxtail, Giant [2, 14]: 10
- Plant response rating, Foxtail, Giant [2, 15]: 40
- Crabgrass, Large plant response rating [3, 12]: 60
- Plant response rating, Crabgrass, Large [3, 13]: 80
- Plant response rating, Crabgrass, Large [3, 14]: 40
- Plant response rating, Crabgrass, Large [3, 15]: 90
- Morningglory plant response rating [4, 12]: 80
- Plant response rating, Morningglory [4, 13]: 80
- Plant response rating, Morningglory [4, 14]: 0
- Plant response rating, Morningglory [4, 15]: 50
- Pigweed plant response rating [5, 12]: 100
- Plant response rating, Pigweed [5, 13]: 100
- Plant response rating, Pigweed [5, 14]: 90
- Plant response rating, Pigweed [5, 15]: 100
- Velvetleaf plant response rating [6, 12]: 100
- Plant response rating, Velvetleaf [6, 13]: 100
- Plant response rating, Velvetleaf [6, 14]: 70
- Plant response rating, Velvetleaf [6, 15]: 100
- Wheat plant response rating [7, 12]: 0
- Plant response rating, Wheat [7, 13]: 0
- Plant response rating, Wheat [7, 14]: 0
- Plant response rating, Wheat [7, 15]: 0
- Plant response rating, Canarygrass [8, 16]: 0
- Plant response rating, Canarygrass [8, 17]: 0
- Plant response rating, Canarygrass [8, 18]: 0
- Canarygrass plant response rating [8]: 0
- Plant response rating, Chickweed [9, 16]: 60
- Plant response rating, Chickweed [9, 17]: 70
- Plant response rating, Chickweed [9, 18]: 80
- Chickweed plant response rating [9]: 95
- Plant response rating, Windgrass ([10]; 62 g ai/ha, 13 to 15 days): 60
- Plant response rating, Windgrass [10, 19]: 70
- Plant response rating, Barley [11, 16]: 0
- Plant response rating, Barley [11, 17]: 0
- Plant response rating, Barley [11, 18]: 0
- Barley plant response rating [11]: 5
